EC50 data for 22 compounds are collected here from patent publication US10508104B2, “6-hydroxy-5-(phenyl/heteroarylsulfonyl)pyrimidin-4(1H)-one as APJ agonists” (Bristol-Myers Squibb Company, priority 2016, dated 2019).

For one experiment, the target named is human APJ receptor (Homo sapiens (Human), UniProt P35414). The experiment can be described thus: Intracellular cAMP accumulation assay (APJ hcAMP, HTRF). To be noted: HEK293 cells stably expressing human APJ receptor; inhibition of forskolin-mediated cAMP production; read-out: Human APJ cAMP EC50 Potency range. Type of experiment: cell-based. Summed up: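 HEK293 cells stably expressing human APJ, 5,000 per well, incubated 30 min at rt with compound, […] and 2 μM forskolin. cAMP measured by HTRF against a cAMP standard curve as inhibition of forskolin-driven production. EC50 from variable-slope sigmoidal fit.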
Chain of human APJ receptor (P35414 whole entry): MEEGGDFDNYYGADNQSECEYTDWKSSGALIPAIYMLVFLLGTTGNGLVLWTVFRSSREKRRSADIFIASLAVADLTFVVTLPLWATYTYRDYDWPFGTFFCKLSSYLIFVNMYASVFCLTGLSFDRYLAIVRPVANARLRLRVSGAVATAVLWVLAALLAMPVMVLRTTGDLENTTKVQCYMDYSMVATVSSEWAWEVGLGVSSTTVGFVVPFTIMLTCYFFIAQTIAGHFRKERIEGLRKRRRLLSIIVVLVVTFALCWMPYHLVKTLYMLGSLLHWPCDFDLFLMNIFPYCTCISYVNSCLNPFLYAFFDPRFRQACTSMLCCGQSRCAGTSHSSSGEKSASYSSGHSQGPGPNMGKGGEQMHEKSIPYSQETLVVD
A general note: Changes in cAMP serve as a functional read-out for many G protein-coupled receptors.
As for `CCCCc1nc(=O)c(S(=O)(=O)c2ccc(-n3cc(Cl)ccc3=O)cc2)c(O)n1-c1c(OC)cccc1OC` [Example 71, 2-Butyl-5-((4-(5-chloro-2-oxopyridin-1 (2H)-yl)phenyl)sulfonyl)-1-(2,6-dimethoxyphenyl)-6-hydroxypyrimidin-4(1H)-one], the EC50 was in the range of 0.01 to 10 nM.

Staying with this experiment, now noted: human APJ, intracellular cAMP accumulation; read-out: Human APJ cAMP EC50 Potency range.
Regarding `CCCCc1nc(=O)c(S(=O)(=O)c2ccc(-c3ccc4ncccc4c3)cc2)c(O)n1-c1c(OC)cccc1OC` [Example 54, 2-butyl-1-(2,6-dimethoxyphenyl)-6-hydroxy-5-[4-(quinolin-6-yl)benzenesulfonyl]-1,4-dihydropyrimidin-4-one], the EC50 lay within 0.01 to 10 nM. With `CCCCc1nc(=O)c(S(=O)(=O)c2ccc(-c3ccc(OC(F)(F)F)cc3)cc2)c(O)n1-c1c(OC)cccc1OC` [Example 55, 2-butyl-1-(2,6-dimethoxyphenyl)-6-hydroxy-5-{4-[4-(trifluoromethoxy)phenyl]benzenesulfonyl}-1,4-dihydropyrimidin-4-one], the EC50 is 0.01 to 10 nM. As to `CCCCc1nc(=O)c(S(=O)(=O)c2ccc(-c3cc(Cl)cc(Cl)c3)cc2)c(O)n1-c1c(OC)cccc1OC` [Example 56, 2-butyl-5-[4-(3,5-dichlorophenyl)benzenesulfonyl]-1-(2,6-dimethoxyphenyl)-6-hydroxy-1,4-dihydropyrimidin-4-one], the EC50 is 0.01 to 10 nM.

Turning to `CCCCc1nc(=O)c(S(=O)(=O)c2ccc(-c3ccccc3F)cc2)c(O)n1-c1c(OC)cccc1OC` [Example 57, 2-butyl-1-(2,6-dimethoxyphenyl)-5-[4-(2-fluorophenyl)benzene-sulfonyl]-6-hydroxy-1,4-dihydropyrimidin-4-one], the EC50 lay within 0.01 to 10 nM. Consider `CCCCc1nc(=O)c(S(=O)(=O)c2ccc(-c3ccc(F)c(F)c3)cc2)c(O)n1-c1c(OC)cccc1OC` [Example 58, 2-butyl-5-[4-(3,4-difluorophenyl)benzenesulfonyl]-1-(2,6-dimethoxyphenyl)-6-hydroxy-1,4-dihydropyrimidin-4-one], for which the EC50 was in the range of 0.01 to 10 nM. For `CCCCc1nc(=O)c(S(=O)(=O)c2ccc(-c3ccc(C)c(C)c3)cc2)c(O)n1-c1c(OC)cccc1OC` [Example 59, 2-butyl-1-(2,6-dimethoxyphenyl)-5-[4-(3,4-dimethylphenyl)benzene-sulfonyl]-6-hydroxy-1,4-dihydropyrimidin-4-one], the EC50 was in the range of 0.01 to 10 nM. The same measure, in the same setting: as for `CCCCc1nc(=O)c(S(=O)(=O)c2ccc(-c3cccnc3C)cc2)c(O)n1-c1c(OC)cccc1OC` [Example 60, 2-butyl-1-(2,6-dimethoxyphenyl)-6-hydroxy-5-[4-(2-methylpyridin-3-yl)benzenesulfonyl]-1,4-dihydropyrimidin-4-one], the figure is 0.01 to 10 nM; as for `CCCCc1nc(=O)c(S(=O)(=O)c2ccc(-c3ccc(Cl)nc3C)cc2)c(O)n1-c1c(OC)cccc1OC` [Example 61, 2-butyl-5-[4-(6-chloro-2-methylpyridin-3-yl)benzenesulfonyl]-1-(2,6-dimethoxyphenyl)-6-hydroxy-1,4-dihydropyrimidin-4-one], 0.01 to 10 nM. For `CCCCc1nc(=O)c(S(=O)(=O)c2ccc(C)cc2)c(O)n1-c1c(OC)cccc1OC` [Example 62, 2-butyl-1-(2,6-dimethoxyphenyl)-6-hydroxy-5-(4-methylbenzenesulfonyl)-1,4-dihydropyrimidin-4-one], the concentration for a half-maximal effect (EC50) was in the range of 0.01 to 10 nM. The same measure, in the same setting: the same measure for `COc1cccc(OC)c1-n1c(C2CCCC2)nc(=O)c(S(=O)(=O)c2ccc(C)cc2)c1O` [Example 63, 2-cyclopentyl-1-(2,6-dimethoxyphenyl)-6-hydroxy-5-(4-methylbenzenesulfonyl)-1,4-dihydropyrimidin-4-one]: 0.01 to 10 nM.

Take `COc1cccc(OC)c1-n1c(C2CCCC2)nc(=O)c(S(=O)(=O)c2ccc(-c3ccnc(NC(=O)C4CC4)c3)cc2)c1O` [Example 64, N-[4-(4-{[2-cyclopentyl-1-(2,6-dimethoxyphenyl)-6-hydroxy-4-oxo-1,4-dihydropyrimidin-5-yl]sulfonyl}phenyl)pyri-din-2-yl]cyclopropane-carboxamide]: the EC50 lay in the range of 0.01 to 10 nM. For `CCCCc1nc(=O)c(S(=O)(=O)c2ccc(-c3ccnc(NC(=O)C4CC4)c3)cc2)c(O)n1-c1c(CC)cccc1CC` [Example 65, N-[4-(4-{[2-butyl-1-(2,6-diethylphenyl)-6-hydroxy-4-oxo-1,4-dihydropyrimidin-5-yl]sulfonyl}phenyl)pyri-din-2-yl]cyclopropane-carboxamide], the EC50 was in the range of 0.01 to 10 nM.

Take `CCCCc1nc(=O)c(S(=O)(=O)c2ccc(C)cc2)c(O)n1-c1c(CC)cccc1CC` [Example 66, 2-butyl-1-(2,6-diethylphenyl)-6-hydroxy-5-(4-methylbenzenesulfonyl)-1,4-dihydropyrimidin-4-one]: the EC50 lay within 0.01 to 10 nM. Consider `CCOCc1nc(=O)c(S(=O)(=O)c2ccc(C)cc2)c(O)n1-c1c(CC)cccc1CC` [Example 67, 1-(2,6-diethylphenyl)-2-(ethoxymethyl)-6-hydroxy-5-(4-methylbenzenesulfonyl)-1,4-dihydropyrimidin-4-one], for which the EC50 is 0.01 to 10 nM. For `CCCCc1nc(=O)c(S(=O)(=O)c2ccc(-c3ccc(F)cc3)c(F)c2)c(O)n1-c1c(OC)cccc1OC` [Example 68, 2-butyl-1-(2,6-dimethoxyphenyl)-5-[3-fluoro-4-(4-fluorophenyl)benzene-sulfonyl]-6-hydroxy-1,4-dihydropyrimidin-4-one], the 50% effective concentration (EC50) lay within 0.01 to 10 nM. As for `CCCCc1nc(=O)c(S(=O)(=O)c2ccc(-c3ccnc(F)c3C)c(F)c2)c(O)n1-c1c(OC)cccc1OC` [Example 69, 2-butyl-1-(2,6-dimethoxyphenyl)-5-[3-fluoro-4-(2-fluoro-3-methylpyridin-4-yl)benzenesulfonyl]-6-hydroxy-1,4-dihydropyrimidin-4-one], the EC50 lay in the range of 0.01 to 10 nM. For `CCCCc1nc(=O)c(S(=O)(=O)c2ccc(-c3ccc(F)nc3)c(F)c2)c(O)n1-c1c(OC)cccc1OC` [Example 70, 2-butyl-1-(2,6-dimethoxyphenyl)-5-[3-fluoro-4-(6-fluoropyridin-3-yl)benzenesulfonyl]-6-hydroxy-1,4-dihydropyrimidin-4-one], the EC50 was 0.01 to 10 nM. `CCCCc1nc(=O)c(S(=O)(=O)c2ccc(-n3ccccc3=O)cc2)c(O)n1-c1c(OC)cccc1OC` [Example 72, 2-butyl-1-(2,6-dimethoxyphenyl)-6-hydroxy-5-[4-(2-oxo-1,2-dihydropyridin-1-yl)benzenesulfonyl]-1,4-dihydropyrimidin-4-one]: the EC50 was in the range of 0.01 to 10 nM. Regarding `COc1cccc(OC)c1-n1c(CCC(C)C)nc(=O)c(S(=O)(=O)c2ccc(-n3ccccc3=O)cc2)c1O` [Example 73, 1-(2,6-dimethoxyphenyl)-6-hydroxy-2-(3-methylbutyl)-5-[4-(2-oxo-1,2-dihydropyridin-1-yl)benzenesulfonyl]-1,4-dihydropyrimidin-4-one], the EC50 lay within 0.01 to 10 nM. Consider `CCCCc1nc(=O)c(S(=O)(=O)c2ccc(-n3ccc(C)cc3=O)cc2)c(O)n1-c1c(OC)cccc1OC` [Example 74, 2-butyl-1-(2,6-dimethoxyphenyl)-6-hydroxy-5-[4-(4-methyl-2-oxo-1,2-dihydropyridin-1-yl)benzenesulfonyl]-1,4-dihydropyrimidin-4-one], for which the EC50 is 0.01 to 10 nM. The same measure, in the same setting: as for `CCCCc1nc(=O)c(S(=O)(=O)c2ccc(-n3cc(F)ccc3=O)cc2)c(O)n1-c1c(OC)cccc1OC` [Example 75, 2-butyl-1-(2,6-dimethoxyphenyl)-5-[4-(5-fluoro-2-oxo-1,2-dihydropyridin-1-yl)benzenesulfonyl]-6-hydroxy-1,4-dihydropyrimidin-4-one], the figure is 0.01 to 10 nM.

As a reminder, the EC50 is the concentration needed to bring the measured effect to its halfway point.
